The term MIC denotes the smallest concentration in the dilution series that meets the test's criterion for growth inhibition.

The text below walks through data of ChEMBL document CHEMBL1275606, “Novel chromosome-encoded CTX-M-78 beta-lactamase from a Kluyvera georgiana clinical isolate as a putative origin of CTX-M-25 subgroup” (2010).

Common to all, as to type: functional
Assay [1] deals with Kluyvera georgiana. Kind of assay: Antimicrobial activity against Kluyvera georgiana 14751 expressing beta-lactamase CTX-M-78 obtained from bloodstream of patient by […] in presence of beta-lactamase inhibitor clavulanic acid. (In agar diffusion tests the substance spreads into inoculated agar from a disc or well.)
The test system of assay [2] is Kluyvera georgiana. Kind of assay: Antimicrobial activity against Kluyvera georgiana 14751 expressing beta-lactamase CTX-M-78 obtained from bloodstream of patient by […].
Assay [3] relates to Escherichia coli. Nature of the assay: Antimicrobial activity against Escherichia coli TOP10F' transformant harboring beta-lactamase CTX-M-78 by […].
Assay [4] deals with Escherichia coli. Kind of assay: Antimicrobial activity against Escherichia coli TOP10F' by […].

Values after ≈ are worked out from the molar mass of the structure shown. Some results are limits rather than exact numbers.

Take `CC1(C)S[C@@H]2[C@H](NC(=O)[C@H](N)c3ccccc3)C(=O)N2[C@H]1C(=O)O` [AMPICILLIN]: the MIC in the assay with Kluyvera georgiana [1] was determined as 4 µg/mL; with Kluyvera georgiana [2] it was 256 µg/mL (≈ 733 µM); in the assay on Escherichia coli [3], 256 µg/mL (≈ 733 µM).

For the compound `C[C@H]1[C@H](NC(=O)/C(=N\OC(C)(C)C(=O)O)c2csc(N)n2)C(=O)N1S(=O)(=O)O` [AZTREONAM], the MIC in the assay on Kluyvera georgiana [2] was at most 0.016 µg/mL; against Escherichia coli [3], 0.5 µg/mL (≈ 1.15 µM).

`CO/N=C(\C(=O)N[C@@H]1C(=O)N2C(C(=O)[O-])=C(C[N+]3(C)CCCC3)CS[C@H]12)c1csc(N)n1` [CEFEPIME]: the MIC against Escherichia coli [4] amounted to 0.016 µg/mL (≈ 0.0333 µM); against Kluyvera georgiana [2], 0.032 µg/mL (≈ 0.0666 µM); against Escherichia coli [3], 0.5 µg/mL (≈ 1.04 µM).

Turning to `CO/N=C(\C(=O)N[C@@H]1C(=O)N2C(C(=O)O)=C(COC(C)=O)CS[C@H]12)c1csc(N)n1` [CEFOTAXIME], the MIC was at most 0.016 µg/mL against Escherichia coli [4], 0.032 µg/mL (≈ 0.0703 µM) against Kluyvera georgiana [2] and 1 µg/mL (≈ 2.2 µM) against Escherichia coli [3].

Consider `CO[C@@]1(NC(=O)Cc2cccs2)C(=O)N2C(C(=O)O)=C(COC(N)=O)CS[C@@H]21` [CEFOXITIN], for which the values for the MIC in the assay on Escherichia coli [4], with Kluyvera georgiana [2] and in the assay with Escherichia coli [3] were 2 µg/mL (≈ 4.68 µM), 1 µg/mL (≈ 2.34 µM) and 2 µg/mL (≈ 4.68 µM), respectively.

With `CC(C)(O/N=C(\C(=O)N[C@@H]1C(=O)N2C(C(=O)[O-])=C(C[n+]3ccccc3)CS[C@H]12)c1csc(N)n1)C(=O)O` [CEFTAZIDIME], the results for the MIC against Escherichia coli [4], in the assay on Kluyvera georgiana [2] and against Escherichia coli [3] were 0.125 µg/mL (≈ 0.229 µM), 0.063 µg/mL (≈ 0.115 µM) and 0.25 µg/mL (≈ 0.457 µM), respectively.

Regarding `CC(=O)OCC1=C(C(=O)O)N2C(=O)[C@@H](NC(=O)Cc3cccs3)[C@H]2SC1` [CEPHALOTHIN], the MIC against Escherichia coli [4] is 2 µg/mL (≈ 5.04 µM); in the assay on Kluyvera georgiana [2], 8 µg/mL (≈ 20.2 µM); in the assay on Escherichia coli [3], 256 µg/mL (≈ 646 µM).

Turning to `NC[C@H]1O[C@H](O[C@H]2[C@H](O)[C@@H](O[C@H]3O[C@H](CO)[C@@H](O)[C@H](N)[C@H]3O)[C@H](N)C[C@@H]2N)[C@H](O)[C@@H](O)[C@@H]1O` [KANAMYCIN], the MIC came out at 1 µg/mL (≈ 2.06 µM) in the assay on Escherichia coli [4], 16 µg/mL (≈ 33 µM) against Kluyvera georgiana [2] and 256 µg/mL (≈ 528 µM) in the assay on Escherichia coli [3].

With `CCn1cc(C(=O)O)c(=O)c2ccc(C)nc21` [NALIDIXIC ACID], the figures for the MIC in the assay on Kluyvera georgiana [2] and with Escherichia coli [3] were 128 µg/mL (≈ 551 µM) and 2 µg/mL (≈ 8.61 µM), respectively.

As to `CN(C)[C@@H]1C(O)=C(C(N)=O)C(=O)[C@@]2(O)C(O)=C3C(=O)c4c(O)cccc4[C@@](C)(O)[C@H]3C[C@@H]12` [TETRACYCLINE], the MIC was at most 0.5 µg/mL with Kluyvera georgiana [2] and 256 µg/mL (≈ 576 µM) against Escherichia coli [3].

For GENTAMICIN, the MIC against Kluyvera georgiana [2] was 64 µg/mL; against Escherichia coli [3], under 0.5 µg/mL.
